According to ChEMBL document CHEMBL4118108, “UNC-51-like Kinase 1: From an Autophagic Initiator to Multifunctional Drug Target” (J Med Chem, 2018):

What was measured:
MDA-MB-231 = test: Antiproliferative activity against human MDA-MB-231 cells by MTT assay; type: functional, cell-based
[1] = molecular target: T1, Serine/threonine-protein kinase ULK2 (Homo sapiens, UniProt Q8IYT8); test: Inhibition of GST-tagged ULK2 (unknown origin)
T1 sequence (Q8IYT8 whole entry): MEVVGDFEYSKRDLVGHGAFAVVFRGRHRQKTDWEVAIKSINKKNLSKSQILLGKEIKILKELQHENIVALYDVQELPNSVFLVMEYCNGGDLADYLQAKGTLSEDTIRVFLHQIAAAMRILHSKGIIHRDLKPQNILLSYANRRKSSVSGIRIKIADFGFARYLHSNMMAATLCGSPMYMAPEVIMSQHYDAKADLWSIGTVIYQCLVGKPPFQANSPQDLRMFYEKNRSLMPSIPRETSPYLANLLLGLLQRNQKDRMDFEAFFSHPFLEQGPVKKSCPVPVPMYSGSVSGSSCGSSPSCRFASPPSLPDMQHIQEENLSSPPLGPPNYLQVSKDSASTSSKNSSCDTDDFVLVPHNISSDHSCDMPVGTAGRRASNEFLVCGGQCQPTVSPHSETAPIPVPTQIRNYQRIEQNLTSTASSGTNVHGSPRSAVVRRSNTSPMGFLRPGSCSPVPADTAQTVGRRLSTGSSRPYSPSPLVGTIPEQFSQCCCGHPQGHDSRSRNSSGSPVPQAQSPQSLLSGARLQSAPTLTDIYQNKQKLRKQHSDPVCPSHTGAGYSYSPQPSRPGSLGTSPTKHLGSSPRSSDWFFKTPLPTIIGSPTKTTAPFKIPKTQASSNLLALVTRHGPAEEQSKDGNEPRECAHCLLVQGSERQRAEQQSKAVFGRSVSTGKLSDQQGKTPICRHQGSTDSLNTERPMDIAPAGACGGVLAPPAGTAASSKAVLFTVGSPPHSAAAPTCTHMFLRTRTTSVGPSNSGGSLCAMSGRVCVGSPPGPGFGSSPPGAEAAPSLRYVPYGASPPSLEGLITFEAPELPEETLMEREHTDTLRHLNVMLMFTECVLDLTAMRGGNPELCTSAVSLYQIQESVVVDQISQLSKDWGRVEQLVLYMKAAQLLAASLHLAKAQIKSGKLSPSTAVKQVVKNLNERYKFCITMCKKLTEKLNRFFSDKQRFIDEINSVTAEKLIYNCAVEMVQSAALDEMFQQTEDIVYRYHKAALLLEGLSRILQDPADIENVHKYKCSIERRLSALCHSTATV

**Q.** For `CC(C)CN(CC(=O)N1CCN(CC(OCc2ccc3ccccc3c2)c2ccc(Cl)cc2Cl)CC1)CC(C)C` (configuration not stated), which IC50 (MDA-MB-231) is on record?
**A.** 1660 nM

**Q.** How did the IC50 [1] turn out when `CNC(=O)c1ccccc1Oc1nc(Nc2cc(OC)c(OC)c(OC)c2)ncc1Br` was run?
**A.** 711 nM
